Measured values as given in patent US10588317B2, “Isoxazoline-substituted benzamides and analogues as insecticides” (priority 2015, dated 2020).

Assays:
Assay type in all cases: in vivo
Spodoptera littoralis [1] = test: Spodoptera littoralis (Egyptian cotton leaf worm), sprayed cotton leaf discs; settings: foliar, 72 h, application rate 200 ppm, L1 larvae, 3 days after infestation, read-out: control (mortality, anti-feeding effect, growth inhibition)
Procedure, shortened: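 Five first-instar larvae placed on dried cotton leaf discs (on agar) previously sprayed with aqueous dilutions of 10'000 ppm DMSO stocks. Scored at 3 days against untreated discs for mortality, feeding inhibition and growth inhibition; any category above untreated counts as control.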

Thrips tabaci = Thrips tabaci (onion thrips): feeding/contact activity; settings: 144 h, application rate 200 ppm, Thrips population of mixed ages, 6 days after infestation, read-out: mortality
Experimental: Sunflower leaf discs were placed on agar in 24-well microtiter plates and sprayed with aqueous test solutions prepared from 10'000 ppm DMSO stock solutions. After drying the leaf discs were infested with a Thrips population of mixed ages. The samples were assessed for mortality 6 days after infestation.

Spodoptera littoralis [2] = test: Spodoptera littoralis (Egyptian cotton leaf worm), uptake by lettuce roots from agar; settings: 144 h, read-out: effect in at least one of the three categories (mortality, anti-feeding, or growth inhibition); for percent effect (mortality, anti-feeding or growth inhibition) at 12.5 ppm: test rate 12.5 ppm, eggs, 6 days after infestation
Text: Test compounds were applied by pipette from 10'000 ppm DMSO stock solutions into 24-well plates and mixed with agar. Lettuce seeds were placed onto the agar and the multi well plate was closed by another plate which contained also agar. After 7 days the compound was absorbed by the roots and the lettuce grew into the lid plate. The lettuce leaves were then cut off into the lid plate. Spodoptera eggs were pipetted through a plastic stencil onto a humid gel blotting paper and the lid plate was closed with it. The samples were assessed for mortality, anti-feedant effect and growth inhibition in comparison to untreated samples 6 days after infestation.
The following compounds gave an effect of at least 80% in at least one of the three categories (mortality, anti-feeding, or growth inhibition) at a test rate of 12.5 ppm: […]

Tetranychus urticae = Tetranychus urticae (two-spotted spider mite): feeding/contact activity; settings: 192 h, application rate 200 ppm, mixed population (mobile stages), 8 days after infestation, read-out: mortality
Experimental: Bean leaf discs on agar in 24-well microtiter plates were sprayed with aqueous test solutions prepared from 10'000 ppm DMSO stock solutions. After drying the leaf discs were infested with a mite population of mixed ages. The samples were assessed for mortality on mixed population (mobile stages) 8 days after infestation.

Myzus persicae = Myzus persicae (green peach aphid): feeding/contact activity; settings: 144 h, application rate 200 ppm, aphid population of mixed ages, 6 days after infestation, read-out: mortality
Experimental: Sunflower leaf discs were placed onto agar in a 24-well microtiter plate and sprayed with aqueous test solutions prepared from 10'000 ppm DMSO stock solutions. After drying, the leaf discs were infested with an aphid population of mixed ages. The samples were assessed for mortality 6 days after infestation.

Plutella xylostella = Plutella xylostella (diamond back moth), artificial diet; settings: 120 h, application rate 200 ppm, L2 larvae, 5 days after infestation, read-out: effect in at least one of the two categories (mortality or growth inhibition)
Procedure, shortened: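 L2 larvae (10-15 per well) fed on compound-treated, dried artificial diet; test solutions diluted in water from 10'000 ppm DMSO stocks. Readout 5 days post-infestation as mortality or growth inhibition versus untreated diet, with at least 80% effect at 200 ppm as threshold.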

Diabrotica balteata = Diabrotica balteata (corn root worm), sprayed maize sprouts; settings: 96 h, application rate 200 ppm, L2 larvae, 4 days after infestation, read-out: effect in at least one of the two categories (mortality or growth inhibition)
Procedure, shortened: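 Read-out at 4 days post-infestation: mortality and growth inhibition relative to untreated samples. Test solutions (200 ppm, from DMSO stocks) were sprayed onto agar-held maize sprouts, which after drying received 6–10 L2 larvae per well.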

Euschistus heros = Euschistus heros (neotropical brown stink bug), sprayed soybean leaves; settings: 120 h, application rate 200 ppm, N2 nymphs, 5 days after infestation, read-out: effect in at least one of the two categories (mortality or growth inhibition)
Procedure, shortened: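 Scored 5 days post-infestation versus untreated controls, for both mortality and growth inhibition: N2 nymphs placed on agar-mounted soybean leaves previously sprayed at 200 ppm with aqueous test solutions from DMSO stocks and left to dry.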

CNS(=O)(=O)N1C[C@@H](NC(=O)c2ccc(C3=NO[C@@](c4cc(Cl)cc(Cl)c4)(C(F)(F)F)C3)cc2Cl)CO1 [Compound A114, 2-chloro-4-[(5S)-5-(3,5-dichlorophenyl)-5-(trifluoromethyl)-4H-isoxazol-3-yl]-N-[(4R)-2-(methylsulfamoyl)isoxazolidin-4-yl]benzamide]
≥ 80%: mortality at 200 ppm (Spodoptera littoralis [1]) | mortality at 200 ppm (Thrips tabaci) | percent control (mortality, anti-feedant effect or growth inhibition) at 12.5 ppm (Spodoptera littoralis [2]) | mortality at 200 ppm (Tetranychus urticae) | mortality at 200 ppm (Myzus persicae) | percent effect (mortality or growth inhibition) at 200 ppm (Plutella xylostella) | percent effect (mortality or growth inhibition) at 200 ppm (Diabrotica balteata) | percent effect (mortality or growth inhibition) at 200 ppm (Euschistus heros)

Cc1cc(C2=NOC(c3cc(Cl)c(F)c(Cl)c3)(C(F)(F)F)C2)ccc1C(=O)NC1CON(S(C)(=O)=O)C1 (centres unmarked) [Compound A63]
≥ 80%: mortality at 200 ppm (Spodoptera littoralis [1]) | mortality at 200 ppm (Thrips tabaci) | percent control (mortality, anti-feedant effect or growth inhibition) at 12.5 ppm (Spodoptera littoralis [2]) | mortality at 200 ppm (Tetranychus urticae) | mortality at 200 ppm (Myzus persicae) | percent effect (mortality or growth inhibition) at 200 ppm (Plutella xylostella) | percent effect (mortality or growth inhibition) at 200 ppm (Diabrotica balteata) | percent effect (mortality or growth inhibition) at 200 ppm (Euschistus heros)

Cc1cc(C2=NO[C@@](c3cc(Cl)c(F)c(Cl)c3)(C(F)(F)F)C2)ccc1C(=O)N[C@@H]1CON(S(=O)(=O)N(C)C)C1 (single isomer, unassigned) [Compound A34]
≥ 80%: mortality at 200 ppm (Spodoptera littoralis [1]) | mortality at 200 ppm (Thrips tabaci) | percent control (mortality, anti-feedant effect or growth inhibition) at 12.5 ppm (Spodoptera littoralis [2]) | mortality at 200 ppm (Tetranychus urticae) | mortality at 200 ppm (Myzus persicae) | percent effect (mortality or growth inhibition) at 200 ppm (Plutella xylostella) | percent effect (mortality or growth inhibition) at 200 ppm (Diabrotica balteata) | percent effect (mortality or growth inhibition) at 200 ppm (Euschistus heros)

C=CCN(C)S(=O)(=O)N1CC(NC(=O)c2ccc(C3=NO[C@@](c4cc(Cl)c(Cl)c(Cl)c4)(C(F)(F)F)C3)cc2C)CO1 (stereo partly drawn) [Compound A82, N-[2-[allyl(methyl)sulfamoyl]isoxazolidin-4-yl]-2-methyl-4-[(5S)-5-(3,4,5-trichlorophenyl)-5-(trifluoromethyl)-4H-isoxazol-3-yl]benzamide]
≥ 80%: mortality at 200 ppm (Spodoptera littoralis [1]) | mortality at 200 ppm (Thrips tabaci) | percent control (mortality, anti-feedant effect or growth inhibition) at 12.5 ppm (Spodoptera littoralis [2]) | mortality at 200 ppm (Tetranychus urticae) | mortality at 200 ppm (Myzus persicae) | percent effect (mortality or growth inhibition) at 200 ppm (Plutella xylostella) | percent effect (mortality or growth inhibition) at 200 ppm (Diabrotica balteata) | percent effect (mortality or growth inhibition) at 200 ppm (Euschistus heros)

Cc1cc(C2=NO[C@@](c3cccc(C(F)(F)F)c3)(C(F)(F)F)C2)ccc1C(=O)N[C@H]1CON(S(=O)(=O)N(C)C)C1 [Compound A111]
≥ 80%: mortality at 200 ppm (Spodoptera littoralis [1]) | mortality at 200 ppm (Thrips tabaci) | percent effect (mortality, anti-feeding or growth inhibition) at 12.5 ppm (Spodoptera littoralis [2]) | mortality at 200 ppm (Tetranychus urticae) | mortality at 200 ppm (Myzus persicae) | percent effect (mortality or growth inhibition) at 200 ppm (Plutella xylostella) | percent effect (mortality or growth inhibition) at 200 ppm (Diabrotica balteata) | percent effect (mortality or growth inhibition) at 200 ppm (Euschistus heros)

Cc1cc(C2=NO[C@@](c3cc(Br)cc(C(F)(F)F)c3)(C(F)(F)F)C2)ccc1C(=O)NC1CON(S(C)(=O)=O)C1 (some centres unmarked) [Compound A16]
≥ 80%: mortality at 200 ppm (Spodoptera littoralis [1]) | mortality at 200 ppm (Thrips tabaci) | percent effect (mortality, anti-feeding or growth inhibition) at 12.5 ppm (Spodoptera littoralis [2]) | mortality at 200 ppm (Tetranychus urticae) | mortality at 200 ppm (Myzus persicae) | percent effect (mortality or growth inhibition) at 200 ppm (Plutella xylostella) | percent effect (mortality or growth inhibition) at 200 ppm (Diabrotica balteata)

CN(C)S(=O)(=O)N1CC(NC(=O)c2ccc(C3=NO[C@@](c4cc(Cl)c(F)c(Cl)c4)(C(F)(F)F)C3)cc2Cl)CO1 (some centres unmarked) [Compound A21]
≥ 80%: mortality at 200 ppm (Spodoptera littoralis [1]) | mortality at 200 ppm (Thrips tabaci) | percent control (mortality, anti-feedant effect or growth inhibition) at 12.5 ppm (Spodoptera littoralis [2]) | mortality at 200 ppm (Tetranychus urticae) | mortality at 200 ppm (Myzus persicae) | percent effect (mortality or growth inhibition) at 200 ppm (Plutella xylostella) | percent effect (mortality or growth inhibition) at 200 ppm (Diabrotica balteata)

Cc1cc(C2=NO[C@@](c3cc(Cl)c(Cl)c(Cl)c3)(C(F)(F)F)C2)ccc1C(=O)NC1CON(S(=O)(=O)N(C)C)C1 (stereo partly drawn) [Compound A31, N-[2-(dimethylsulfamoyl)isoxazolidin-4-yl]-2-methyl-4-[(5S)-5-(3,4,5-trichlorophenyl)-5-(trifluoromethyl)-4H-isoxazol-3-yl]benzamide]
≥ 80%: mortality at 200 ppm (Spodoptera littoralis [1]) | mortality at 200 ppm (Thrips tabaci) | percent control (mortality, anti-feedant effect or growth inhibition) at 12.5 ppm (Spodoptera littoralis [2]) | mortality at 200 ppm (Tetranychus urticae) | mortality at 200 ppm (Myzus persicae) | percent effect (mortality or growth inhibition) at 200 ppm (Plutella xylostella) | percent effect (mortality or growth inhibition) at 200 ppm (Diabrotica balteata)

Cc1cc(C2=NO[C@@](c3cc(Br)cc(C(F)(F)F)c3)(C(F)(F)F)C2)ccc1C(=O)NC1CON(S(=O)(=O)N(C)C)C1 (some centres unmarked) [Compound A23]
≥ 80%: mortality at 200 ppm (Spodoptera littoralis [1]) | mortality at 200 ppm (Thrips tabaci) | percent effect (mortality, anti-feeding or growth inhibition) at 12.5 ppm (Spodoptera littoralis [2]) | mortality at 200 ppm (Tetranychus urticae) | mortality at 200 ppm (Myzus persicae) | percent effect (mortality or growth inhibition) at 200 ppm (Plutella xylostella) | percent effect (mortality or growth inhibition) at 200 ppm (Diabrotica balteata)

O=C(NC1CON(S(=O)(=O)C2CC2)C1)c1ccc(C2=NO[C@@](c3cc(Cl)c(F)c(Cl)c3)(C(F)(F)F)C2)cc1Cl (stereo partly drawn) [Compound A24, 2-chloro-N-(2-cyclopropylsulfonylisoxazolidin-4-yl)-4-[(5S)-5-(3,5-dichloro-4-fluoro-phenyl)-5-(trifluoromethyl)-4H-isoxazol-3-yl]benzamide]
≥ 80%: mortality at 200 ppm (Spodoptera littoralis [1]) | mortality at 200 ppm (Thrips tabaci) | percent control (mortality, anti-feedant effect or growth inhibition) at 12.5 ppm (Spodoptera littoralis [2]) | mortality at 200 ppm (Tetranychus urticae) | mortality at 200 ppm (Myzus persicae) | percent effect (mortality or growth inhibition) at 200 ppm (Plutella xylostella) | percent effect (mortality or growth inhibition) at 200 ppm (Diabrotica balteata)

O=C(NC1CON(S(=O)(=O)C2CC2)C1)c1ccc(C2=NO[C@@](c3cc(Cl)c(Cl)c(Cl)c3)(C(F)(F)F)C2)cc1Cl (stereo partly drawn) [Compound A30, 2-chloro-N-(2-cyclopropylsulfonylisoxazolidin-4-yl)-4-[(5S)-5-(3,4,5-trichlorophenyl)-5-(trifluoromethyl)-4H-isoxazol-3-yl]benzamide]
≥ 80%: mortality at 200 ppm (Spodoptera littoralis [1]) | mortality at 200 ppm (Thrips tabaci) | percent control (mortality, anti-feedant effect or growth inhibition) at 12.5 ppm (Spodoptera littoralis [2]) | mortality at 200 ppm (Tetranychus urticae) | mortality at 200 ppm (Myzus persicae) | percent effect (mortality or growth inhibition) at 200 ppm (Plutella xylostella) | percent effect (mortality or growth inhibition) at 200 ppm (Diabrotica balteata)

Cc1cc(C2=NO[C@@](c3cc(Cl)cc(C(F)(F)F)c3)(C(F)(F)F)C2)ccc1C(=O)NC1CON(S(=O)(=O)N(C)C)C1 (some centres unmarked) [Compound A22]
≥ 80%: mortality at 200 ppm (Spodoptera littoralis [1]) | mortality at 200 ppm (Thrips tabaci) | percent control (mortality, anti-feedant effect or growth inhibition) at 12.5 ppm (Spodoptera littoralis [2]) | mortality at 200 ppm (Tetranychus urticae) | mortality at 200 ppm (Myzus persicae) | percent effect (mortality or growth inhibition) at 200 ppm (Plutella xylostella) | percent effect (mortality or growth inhibition) at 200 ppm (Diabrotica balteata)
